Test results as given in paper PMC6669961, “Design and Optimization of Thioglycosyl–naphthalimides as Efficient Inhibitors Against Human O-GlcNAcase” (Frontiers in Chemistry, 2019).

Legend:
[1] = target: T1, human O-GlcNAcase (hOGA) (Homo sapiens, UniProt O60502); assay: Enzyme inhibitory activity test against hOGA (4-MU-GlcNAc substrate, end-point fluorescence; Dixon plots for Ki); type: biochemical; details: for inhibition at 100 µM: 100 μM inhibitor, 40 μM 4-MU-GlcNAc, 30°C, 30 min, read-out: Inhibition rate at 100 μM (%) hOGA; for inhibition at 100 µM / Ki: pH 6.5; for Ki: Dixon plots, 4-MU-GlcNAc 40, 20, 10 μM; for inhibitory mechanism toward hOGA: kinetic studies via Dixon plots
T1 construct: made in house; host or cells: Escherichia coli BL21(DE3)
T1 sequence (O60502 1-916): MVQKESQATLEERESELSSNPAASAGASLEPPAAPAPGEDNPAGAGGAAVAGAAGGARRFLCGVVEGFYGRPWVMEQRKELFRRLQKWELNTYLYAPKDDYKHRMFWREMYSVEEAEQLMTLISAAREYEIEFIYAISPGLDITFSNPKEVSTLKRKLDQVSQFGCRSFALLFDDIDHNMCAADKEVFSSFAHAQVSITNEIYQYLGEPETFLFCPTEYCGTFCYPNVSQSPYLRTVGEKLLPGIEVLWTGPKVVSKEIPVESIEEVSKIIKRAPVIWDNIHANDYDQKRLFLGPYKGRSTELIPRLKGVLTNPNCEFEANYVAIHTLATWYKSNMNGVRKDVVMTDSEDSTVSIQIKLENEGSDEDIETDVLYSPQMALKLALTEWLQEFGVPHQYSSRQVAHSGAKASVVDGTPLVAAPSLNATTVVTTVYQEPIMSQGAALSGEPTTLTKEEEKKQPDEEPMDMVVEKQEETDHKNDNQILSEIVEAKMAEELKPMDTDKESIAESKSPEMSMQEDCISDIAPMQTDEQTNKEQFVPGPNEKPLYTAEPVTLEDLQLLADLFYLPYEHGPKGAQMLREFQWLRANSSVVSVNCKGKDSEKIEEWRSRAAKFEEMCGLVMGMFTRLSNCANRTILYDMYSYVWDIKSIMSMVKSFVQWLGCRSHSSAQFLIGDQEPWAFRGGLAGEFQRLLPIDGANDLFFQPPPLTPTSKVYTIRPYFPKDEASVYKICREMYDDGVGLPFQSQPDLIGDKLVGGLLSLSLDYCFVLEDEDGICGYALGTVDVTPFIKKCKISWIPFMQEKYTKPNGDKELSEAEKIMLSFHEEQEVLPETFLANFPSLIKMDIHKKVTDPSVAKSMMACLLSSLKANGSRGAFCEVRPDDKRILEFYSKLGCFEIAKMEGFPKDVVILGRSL
Description: (§1) Human O-GlcNAcase (hOGA) was expressed in Escherichia coli BL21(DE3) and purified according to previous methods (Kong et al., [2016]). Human β-N-acetylhexosaminidase B (HsHexB) was overexpressed in Pichia pastoris and then purified as described previously (Shen et al., [2018a]).
(§2) All target compounds were evaluated for their inhibitory activities against hOGA and HsHexB in end-point experiments. 4-Methylumbelliferyl N-acetyl-β-D-glucosaminide (4-MU-GlcNAc) was used as substrate. In a final assay volume of 100 μL, inhibitor and substrate (40 μM) were mixed with Britton-Robinson buffer (hOGA, pH 6.5; HsHexB, pH 4.5) and enzyme; then, the assay components were incubated at 30°C for 30 min. Subsequently, the enzymatic reaction was terminated by the addition of 100 μL 0.5 M Na2CO3 solution. The fluorescence of the liberated 4-methylumbelliferone (Mu) was quantified at an excitation of 366 nm and emission of 445 nm on a Varioskan Flash microplate reader (Thermo Fisher Scientific, USA). To determine the inhibition constant (Ki), Dixon plots were performed by changing the concentration of the 4-MU-GlcNAc (40, 20, and 10 μM).

[2] = target: T2, human β-N-acetylhexosaminidase B (HsHexB) (Homo sapiens, UniProt P07686); assay: Enzyme inhibitory activity test against HsHexB (4-MU-GlcNAc substrate, end-point fluorescence; Dixon plots for Ki); type: biochemical; details: pH 4.5; for inhibition at 100 µM: 100 μM inhibitor, 40 μM 4-MU-GlcNAc, 30°C, 30 min, read-out: Inhibition rate at 100 μM (%) HsHexB; for Ki: Dixon plots, 4-MU-GlcNAc 40, 20, 10 μM
T2 construct: made in house; host or cells: Pichia pastoris
T2 sequence (P07686 122-556): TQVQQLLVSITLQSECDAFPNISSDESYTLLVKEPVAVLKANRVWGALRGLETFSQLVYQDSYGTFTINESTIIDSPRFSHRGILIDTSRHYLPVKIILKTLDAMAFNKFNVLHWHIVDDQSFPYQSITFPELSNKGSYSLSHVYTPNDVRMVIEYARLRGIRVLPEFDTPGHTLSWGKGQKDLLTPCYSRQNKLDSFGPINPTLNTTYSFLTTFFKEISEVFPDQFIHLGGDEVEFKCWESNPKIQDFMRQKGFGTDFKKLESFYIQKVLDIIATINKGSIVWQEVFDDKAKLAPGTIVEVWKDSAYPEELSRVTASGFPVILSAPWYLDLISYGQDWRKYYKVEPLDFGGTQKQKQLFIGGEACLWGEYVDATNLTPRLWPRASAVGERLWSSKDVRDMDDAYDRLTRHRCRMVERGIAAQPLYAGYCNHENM
Description: as §1, §2

Compound | inhibition at 100 µM [1] [%] | Ki [1] [µM] | increase in potency against hOGA ([1]; compared to lead compound 2 (Ki)) [fold] | inhibitory mechanism toward hOGA [1] | inhibition at 100 µM [2] [%] | Ki [2] [µM] | decrease in inhibitory potency against hOGA ([1]; 10d compared to 10a (Ki)) [fold] | potency against hOGA reduced ([1]; 16h (NHCH3) compared to 16d (CH2CH3)) | decrease in inhibitory activity against hOGA ([1]; NHC2H5 (17a or 17d) compared to NHCH3 (16h or 17c)) [fold]
CC(=O)N[C@@H]1[C@@H](O)[C@H](O)[C@@H](CO)O[C@H]1SCC(=O)NCCCN1C(=O)c2cccc3c(Br)ccc(c23)C1=O [Compound 10a] | 98.7 ± 0.3 | 0.61 ± 0.02 | ~6 | competitive inhibitors | 36.5 ± 0.8 | > 100 |  |  | 
COc1ccc2c3c(cccc13)C(=O)N(CCCNC(=O)CS[C@@H]1O[C@H](CO)[C@@H](O)[C@H](O)[C@H]1NC(C)=O)C2=O [Compound 10b] | 90.6 ± 0.5 | 4.43 ± 0.21 |  |  | 49.2 ± 1.4 | > 100 |  |  | 
CC(=O)N[C@@H]1[C@@H](O)[C@H](O)[C@@H](CO)O[C@H]1SCC(=O)NCCCN1C(=O)c2cccc3c(N(C)C)ccc(c23)C1=O [Compound 10c] | 84.4 ± 1.7 | 9.72 ± 0.49 |  |  | 36.9 ± 0.2 | > 100 |  |  | 
CC(=O)N[C@@H]1[C@@H](O)[C@H](O)[C@@H](CO)O[C@H]1SCC(=O)NCCCN1C(=O)c2cccc3c(N4CCCCC4)ccc(c23)C1=O [Compound 10d] | 93.1 ± 0.2 | 1.42 ± 0.02 |  | competitive inhibitors | 32.8 ± 2.7 | > 100 | 2.3 |  | 
O=C(CS[C@@H]1O[C@H](CO)[C@@H](O)[C@H](O)[C@H]1NC(=O)c1ccccc1)NCCCN1C(=O)c2cccc3c(N4CCCCC4)ccc(c23)C1=O [Compound 16a] | 22 ± 0.5 | > 100 |  |  | 12.2 ± 0.2 | > 100 |  |  | 
O=C(CS[C@@H]1O[C@H](CO)[C@@H](O)[C@H](O)[C@H]1NC(=O)c1ccc(F)cc1)NCCCN1C(=O)c2cccc3c(N4CCCCC4)ccc(c23)C1=O [Compound 16b] | 50.9 ± 0.8 | > 100 |  |  | 15.8 ± 0.4 | > 100 |  |  | 
O=C(CS[C@@H]1O[C@H](CO)[C@@H](O)[C@H](O)[C@H]1NC(=O)OCc1ccccc1)NCCCN1C(=O)c2cccc3c(N4CCCCC4)ccc(c23)C1=O [Compound 16c] | 9.7 ± 0.7 | > 100 |  |  | 2 ± 1.1 | > 100 |  |  | 
CCC(=O)N[C@@H]1[C@@H](O)[C@H](O)[C@@H](CO)O[C@H]1SCC(=O)NCCCN1C(=O)c2cccc3c(N4CCCCC4)ccc(c23)C1=O [Compound 16d] | 88 ± 1.5 | 1.69 ± 0.05 |  |  | 28.7 ± 2 | > 100 |  |  | 
CCCC(=O)N[C@@H]1[C@@H](O)[C@H](O)[C@@H](CO)O[C@H]1SCC(=O)NCCCN1C(=O)c2cccc3c(N4CCCCC4)ccc(c23)C1=O [Compound 16e] | 78.9 ± 1.9 | 12.8 ± 0.27 |  |  | 24.6 ± 1.5 | > 100 |  |  | 
CC(C)C(=O)N[C@@H]1[C@@H](O)[C@H](O)[C@@H](CO)O[C@H]1SCC(=O)NCCCN1C(=O)c2cccc3c(N4CCCCC4)ccc(c23)C1=O [Compound 16f] | 72.2 ± 0.3 | 23.6 ± 0.43 |  |  | 21.4 ± 0.5 | > 100 |  |  | 
O=C(CS[C@@H]1O[C@H](CO)[C@@H](O)[C@H](O)[C@H]1NC(=O)C(F)(F)F)NCCCN1C(=O)c2cccc3c(N4CCCCC4)ccc(c23)C1=O [Compound 16g] | 82.7 ± 1 | 6.37 ± 0.09 |  |  | 6.4 ± 0.7 | > 100 |  |  | 
CNC(=O)N[C@@H]1[C@@H](O)[C@H](O)[C@@H](CO)O[C@H]1SCC(=O)NCCCN1C(=O)c2cccc3c(N4CCCCC4)ccc(c23)C1=O [Compound 16h] | 85.5 ± 1.5 | 6.6 ± 0.22 |  |  | 25.2 ± 0.3 | > 100 |  | about 4 fold | 
O=C(CS[C@@H]1O[C@H](CO)[C@@H](O)[C@H](O)[C@H]1NC(=O)c1ccccc1)NCCCN1C(=O)c2cccc3c(Br)ccc(c23)C1=O [Compound 16j] | 41.1 ± 0.6 | > 100 |  |  | 49.1 ± 1.4 | > 100 |  |  | 
O=C(CS[C@@H]1O[C@H](CO)[C@@H](O)[C@H](O)[C@H]1NC(=O)c1ccc(F)cc1)NCCCN1C(=O)c2cccc3c(Br)ccc(c23)C1=O [Compound 16k] | 48 ± 0.9 | > 100 |  |  | 48.5 ± 1.7 | > 100 |  |  | 
CCC(=O)N[C@@H]1[C@@H](O)[C@H](O)[C@@H](CO)O[C@H]1SCC(=O)NCCCN1C(=O)c2cccc3c(Br)ccc(c23)C1=O [Compound 16l] | 97.7 ± 2.2 | 0.72 ± 0.01 |  |  | 41.8 ± 1 | > 100 |  |  | 
CCCC(=O)N[C@@H]1[C@@H](O)[C@H](O)[C@@H](CO)O[C@H]1SCC(=O)NCCCN1C(=O)c2cccc3c(Br)ccc(c23)C1=O [Compound 16m] | 97.1 ± 1.3 | 4.36 ± 0.21 |  |  | 39.8 ± 2.3 | > 100 |  |  | 
CC(C)C(=O)N[C@@H]1[C@@H](O)[C@H](O)[C@@H](CO)O[C@H]1SCC(=O)NCCCN1C(=O)c2cccc3c(Br)ccc(c23)C1=O [Compound 16n] | 87.8 ± 0.4 | 6.92 ± 0.1 |  |  | 37 ± 0.4 | > 100 |  |  | 
O=C(CS[C@@H]1O[C@H](CO)[C@@H](O)[C@H](O)[C@H]1NC(=O)C(F)(F)F)NCCCN1C(=O)c2cccc3c(Br)ccc(c23)C1=O [Compound 16o] | 90.9 ± 0.2 | 4.62 ± 0.18 |  |  | 37.7 ± 0.9 | > 100 |  |  | 
CCNC(=O)N[C@@H]1[C@@H](O)[C@H](O)[C@@H](CO)O[C@H]1SCC(=O)NCCCN1C(=O)c2cccc3c(N4CCCCC4)ccc(c23)C1=O [Compound 17a] | 68.6 ± 0.8 | 12 ± 0.3 |  |  | 25.9 ± 0.3 | > 100 |  |  | 2 to 3
